ChEMBL document CHEMBL4619814, “Identification and Development of 1,4-Diaryl-1,2,3-triazolo-Based Ureas as Novel FLT3 Inhibitors” (ACS Med Chem Lett, 2020)
The source made the active and inactive calls. The rule behind the calls is not given here.

Tests used:
[1] = tested on: MV4-11; experiment: Induction of cell cycle arrest in human MV4-11 cells assessed as G2/M phase at 20 nM incubated for 48 hrs by propidium iodide staining based flow cytometry analysis (reference value: 24.88 %); format: functional
[2] = tested on: MV4-11; experiment: Induction of apoptosis in human MV4-11 cells assessed as viable cells at 4 nM incubated for 48 hrs by annexin V and 7-AAD staining based flow cytometry analysis (reference value: 90.47 %); format: functional; settings: MV4-11, 48 h, read-out: Activity
[3] = molecular target: Platelet-derived growth factor receptor beta (Homo sapiens, UniProt P09619)
Description: Binding affinity to recombinant human PDGFRB (582 to 1009 residues) expressed in bacterial expression system by Kinomescan method

[4] = tested on: MV4-11; experiment: Induction of cell cycle arrest in human MV4-11 cells assessed as G2/M phase at 100 nM incubated for 48 hrs by propidium iodide staining based flow cytometry analysis (reference value: 24.88 %); format: functional
[5] = tested on: MV4-11; experiment: Induction of cell cycle arrest in human MV4-11 cells assessed as S phase at 100 nM incubated for 48 hrs by propidium iodide staining based flow cytometry analysis (reference value: 20.14 %); format: functional
[6] = Tmax in Sprague-Dawley rat at 25 mg/kg, po; format: ADME, organism-based; settings: in vivo
[7] = Tmax in Sprague-Dawley rat at 5 mg/kg, iv; format: ADME, organism-based; settings: in vivo
[8] = tested on: MV4-11; experiment: Induction of cell cycle arrest in human MV4-11 cells assessed as reduction in Cyclin D2 expression at 0.16 to 100 nM by Western blot analysis; format: functional, cell-based
[9] = tested on: MV4-11; experiment: Induction of apoptosis in human MV4-11 cells assessed as late apoptotic cells at 4 nM incubated for 48 hrs by annexin V and 7-AAD staining based flow cytometry analysis (reference value: 2.25 %); format: functional
[10] = tested on: MV4-11; experiment: Induction of apoptosis in human MV4-11 cells assessed as necrotic cells at 20 nM incubated for 48 hrs by annexin V and 7-AAD staining based flow cytometry analysis (reference value: 0.91 %); format: functional
[11] = tested on: MV4-11; experiment: Induction of apoptosis in human MV4-11 cells assessed as late apoptotic cells at 100 nM incubated for 48 hrs by annexin V and 7-AAD staining based flow cytometry analysis (reference value: 2.25 %); format: functional
[12] = tested on: MV4-11; experiment: Induction of cell cycle arrest in human MV4-11 cells assessed as S phase at 20 nM incubated for 48 hrs by propidium iodide staining based flow cytometry analysis (reference value: 20.14 %); format: functional
[13] = tested on: MV4-11; experiment: Induction of apoptosis in human MV4-11 cells assessed as necrotic cells at 4 nM incubated for 48 hrs by annexin V and 7-AAD staining based flow cytometry analysis (reference value: 0.91 %); format: functional
[14] = tested on: MV4-11; experiment: Induction of apoptosis in human MV4-11 cells assessed as early apoptotic cells at 4 nM incubated for 48 hrs by annexin V and 7-AAD staining based flow cytometry analysis (reference value: 6.36 %); format: functional
[15] = tested on: MV4-11; experiment: Induction of apoptosis in human MV4-11 cells assessed as early apoptotic cells at 100 nM incubated for 48 hrs by annexin V and 7-AAD staining based flow cytometry analysis (reference value: 6.36 %); format: functional
[16] = molecular target: Mast/stem cell growth factor receptor Kit (Homo sapiens, UniProt P10721)
Description: Binding affinity to recombinant human KIT (571 to 972 residues) expressed in bacterial expression system by Kinomescan method

[17] = tested on: MV4-11; experiment: Induction of apoptosis in human MV4-11 cells assessed as viable cells at 20 nM incubated for 48 hrs by annexin V and 7-AAD staining based flow cytometry analysis (reference value: 90.47 %); format: functional; settings: MV4-11, 48 h, read-out: Activity
[18] = molecular target: Proto-oncogene tyrosine-protein kinase receptor Ret (Homo sapiens, UniProt P07949)
Description: Binding affinity to recombinant human RET (713 to 1014 residues) expressed in bacterial expression system by Kinomescan method

[19] = tested on: MV4-11; experiment: Induction of cell cycle arrest in human MV4-11 cells assessed as reduction in CDK4 expression at 0.16 to 100 nM by Western blot analysis; format: functional, cell-based
[20] = molecular target: Receptor-type tyrosine-protein kinase FLT3 (Homo sapiens, UniProt P36888, F691L/ITD)
Description: Binding affinity to recombinant human FLT3 ITD/F691L double mutant expressed in bacterial expression system by Kinomescan method

[21] = Half life in Sprague-Dawley rat at 25 mg/kg, po; format: ADME, organism-based; settings: in vivo
[22] = molecular target: Receptor-type tyrosine-protein kinase FLT3 (Homo sapiens, UniProt P36888, D835V/ITD)
Description: Binding affinity to recombinant human FLT3 ITD/D835V double mutant expressed in bacterial expression system by Kinomescan method

[23] = tested on: MV4-11; experiment: Induction of apoptosis in human MV4-11 cells assessed as late apoptotic cells at 20 nM incubated for 48 hrs by annexin V and 7-AAD staining based flow cytometry analysis (reference value: 2.25 %); format: functional
[24] = tested on: MV4-11; experiment: Induction of cell cycle arrest in human MV4-11 cells assessed as G0/G1 phase at 100 nM incubated for 48 hrs by propidium iodide staining based flow cytometry analysis (reference value: 54.82 %); format: functional
[25] = molecular target: T1, Receptor-type tyrosine-protein kinase FLT3 (Homo sapiens, UniProt P36888, ITD)
Description: Binding affinity to recombinant human FLT3 ITD mutant expressed in bacterial expression system by Kinomescan method

[26] = tested on: MV4-11; experiment: Induction of apoptosis in human MV4-11 cells assessed as increase in Caspase-9 cleavage at 0.16 to 100 nM by Western blot analysis; format: functional, cell-based
[27] = Oral bioavailability in Sprague-Dawley rat at 25 mg/kg; format: ADME, organism-based; settings: in vivo
[28] = tested on: MV4-11; experiment: Induction of apoptosis in human MV4-11 cells assessed as early apoptotic cells at 20 nM incubated for 48 hrs by annexin V and 7-AAD staining based flow cytometry analysis (reference value: 6.36 %); format: functional
[29] = tested on: Receptor-type tyrosine-protein kinase FLT3 (Homo sapiens), P36888 [UNDEFINED MUTATION]; experiment: Inhibition of FLT3 ITD mutant expressed in human MV4-11 cells assessed as reduction in STAT5 level at 4 nM incubated for 6 hrs by Western blot analysis; format: cell-based
[30] = tested on: NB-4; experiment: cells; settings: Homo sapiens, NB-4, 72 h
Description: Cytotoxicity against human NB4 cells assessed as reduction in cell viability incubated for 72 hrs by CCK8 assay

[31] = AUC in Sprague-Dawley rat at 5 mg/kg, iv; format: ADME, organism-based; settings: in vivo
[32] = Clearance in Sprague-Dawley rat at 25 mg/kg, po; format: ADME, organism-based; settings: in vivo
[33] = tested on: MV4-11; experiment: Induction of cell cycle arrest in human MV4-11 cells assessed as reduction in CDK2 expression at 0.16 to 100 nM by Western blot analysis; format: functional, cell-based
[34] = in vitro; settings: mouse, BaF3 cells
Description: Cytotoxicity against human BAF3 cells assessed as growth inhibition incubated for 72 hrs by CCK8 assay

[35] = tested on: MV4-11; experiment: Induction of apoptosis in human MV4-11 cells assessed as necrotic cells at 100 nM incubated for 48 hrs by annexin V and 7-AAD staining based flow cytometry analysis (reference value: 0.91 %); format: functional
[36] = tested on: MV4-11; experiment: Induction of cell cycle arrest in human MV4-11 cells assessed as reduction in Cyclin E expression at 0.16 to 100 nM by Western blot analysis; format: functional, cell-based
[37] = molecular target: T1, Receptor-type tyrosine-protein kinase FLT3; format: cell-based, Sf9
[38] = molecular target: Macrophage colony-stimulating factor 1 receptor (Homo sapiens, UniProt P07333); experiment: Binding affinity to recombinant human CSF1R (564 to 939 residues) expressed in bacterial expression system by Kinomescan method
[39] = tested on: KG-1; experiment: cells; settings: Homo sapiens, KG-1, 72 h
Description: Cytotoxicity against human KG1 cells assessed as reduction in cell viability incubated for 72 hrs by CCK8 assay

Sequence of Mast/stem cell growth factor receptor Kit (P10721 whole entry): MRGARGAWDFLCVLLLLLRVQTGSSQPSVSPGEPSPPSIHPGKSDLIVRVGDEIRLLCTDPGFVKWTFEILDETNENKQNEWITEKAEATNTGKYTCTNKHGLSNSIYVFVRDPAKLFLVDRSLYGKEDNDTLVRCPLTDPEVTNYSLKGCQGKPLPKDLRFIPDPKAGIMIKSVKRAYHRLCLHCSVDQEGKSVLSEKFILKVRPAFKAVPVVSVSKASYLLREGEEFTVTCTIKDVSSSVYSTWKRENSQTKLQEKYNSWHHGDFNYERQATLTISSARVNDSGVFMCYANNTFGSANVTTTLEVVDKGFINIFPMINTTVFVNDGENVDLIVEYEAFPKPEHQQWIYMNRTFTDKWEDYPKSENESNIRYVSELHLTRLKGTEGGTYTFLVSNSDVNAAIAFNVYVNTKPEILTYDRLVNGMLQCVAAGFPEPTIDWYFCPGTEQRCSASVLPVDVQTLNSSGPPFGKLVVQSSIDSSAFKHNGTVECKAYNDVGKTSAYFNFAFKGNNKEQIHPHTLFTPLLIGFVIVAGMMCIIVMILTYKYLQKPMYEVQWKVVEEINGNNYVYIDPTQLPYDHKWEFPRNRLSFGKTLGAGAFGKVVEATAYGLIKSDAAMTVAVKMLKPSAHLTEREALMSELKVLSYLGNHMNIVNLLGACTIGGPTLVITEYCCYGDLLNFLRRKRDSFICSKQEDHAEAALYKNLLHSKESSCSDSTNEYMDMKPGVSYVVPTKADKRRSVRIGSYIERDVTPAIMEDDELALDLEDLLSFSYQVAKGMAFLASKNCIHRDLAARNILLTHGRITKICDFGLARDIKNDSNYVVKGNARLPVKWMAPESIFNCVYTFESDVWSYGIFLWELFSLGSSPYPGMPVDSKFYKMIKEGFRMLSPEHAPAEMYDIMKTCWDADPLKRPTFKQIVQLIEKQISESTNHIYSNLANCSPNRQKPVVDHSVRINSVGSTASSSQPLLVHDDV
Sequence of Proto-oncogene tyrosine-protein kinase receptor Ret (P07949 whole entry): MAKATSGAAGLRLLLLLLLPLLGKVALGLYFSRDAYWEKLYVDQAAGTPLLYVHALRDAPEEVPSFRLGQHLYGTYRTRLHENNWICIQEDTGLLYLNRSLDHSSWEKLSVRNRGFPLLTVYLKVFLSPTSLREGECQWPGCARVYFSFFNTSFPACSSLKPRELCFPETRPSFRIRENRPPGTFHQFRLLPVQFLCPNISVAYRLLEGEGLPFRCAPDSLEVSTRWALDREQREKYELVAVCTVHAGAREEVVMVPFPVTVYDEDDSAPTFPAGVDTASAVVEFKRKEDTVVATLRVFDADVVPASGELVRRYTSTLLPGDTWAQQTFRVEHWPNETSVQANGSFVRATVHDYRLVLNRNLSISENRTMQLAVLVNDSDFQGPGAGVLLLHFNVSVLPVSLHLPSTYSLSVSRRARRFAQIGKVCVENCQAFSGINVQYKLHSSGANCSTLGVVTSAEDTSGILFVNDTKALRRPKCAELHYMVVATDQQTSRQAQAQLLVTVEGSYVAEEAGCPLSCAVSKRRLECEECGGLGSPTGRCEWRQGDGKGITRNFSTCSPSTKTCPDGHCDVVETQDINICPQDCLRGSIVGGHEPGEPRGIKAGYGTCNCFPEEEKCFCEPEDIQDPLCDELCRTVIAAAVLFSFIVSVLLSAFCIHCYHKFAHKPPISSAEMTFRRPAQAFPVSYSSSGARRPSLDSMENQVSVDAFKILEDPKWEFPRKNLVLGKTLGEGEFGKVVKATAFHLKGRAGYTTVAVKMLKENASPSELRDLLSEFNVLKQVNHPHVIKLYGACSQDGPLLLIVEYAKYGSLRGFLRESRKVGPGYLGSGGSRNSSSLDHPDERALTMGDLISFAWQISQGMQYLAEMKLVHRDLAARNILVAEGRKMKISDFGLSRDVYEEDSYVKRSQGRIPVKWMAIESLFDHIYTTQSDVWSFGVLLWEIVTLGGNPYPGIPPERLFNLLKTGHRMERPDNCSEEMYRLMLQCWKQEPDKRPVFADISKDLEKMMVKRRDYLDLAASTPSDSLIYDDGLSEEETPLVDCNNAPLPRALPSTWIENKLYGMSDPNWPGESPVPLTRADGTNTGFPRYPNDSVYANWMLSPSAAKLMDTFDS
Sequence of Macrophage colony-stimulating factor 1 receptor (P07333 whole entry, the tested form may be a part): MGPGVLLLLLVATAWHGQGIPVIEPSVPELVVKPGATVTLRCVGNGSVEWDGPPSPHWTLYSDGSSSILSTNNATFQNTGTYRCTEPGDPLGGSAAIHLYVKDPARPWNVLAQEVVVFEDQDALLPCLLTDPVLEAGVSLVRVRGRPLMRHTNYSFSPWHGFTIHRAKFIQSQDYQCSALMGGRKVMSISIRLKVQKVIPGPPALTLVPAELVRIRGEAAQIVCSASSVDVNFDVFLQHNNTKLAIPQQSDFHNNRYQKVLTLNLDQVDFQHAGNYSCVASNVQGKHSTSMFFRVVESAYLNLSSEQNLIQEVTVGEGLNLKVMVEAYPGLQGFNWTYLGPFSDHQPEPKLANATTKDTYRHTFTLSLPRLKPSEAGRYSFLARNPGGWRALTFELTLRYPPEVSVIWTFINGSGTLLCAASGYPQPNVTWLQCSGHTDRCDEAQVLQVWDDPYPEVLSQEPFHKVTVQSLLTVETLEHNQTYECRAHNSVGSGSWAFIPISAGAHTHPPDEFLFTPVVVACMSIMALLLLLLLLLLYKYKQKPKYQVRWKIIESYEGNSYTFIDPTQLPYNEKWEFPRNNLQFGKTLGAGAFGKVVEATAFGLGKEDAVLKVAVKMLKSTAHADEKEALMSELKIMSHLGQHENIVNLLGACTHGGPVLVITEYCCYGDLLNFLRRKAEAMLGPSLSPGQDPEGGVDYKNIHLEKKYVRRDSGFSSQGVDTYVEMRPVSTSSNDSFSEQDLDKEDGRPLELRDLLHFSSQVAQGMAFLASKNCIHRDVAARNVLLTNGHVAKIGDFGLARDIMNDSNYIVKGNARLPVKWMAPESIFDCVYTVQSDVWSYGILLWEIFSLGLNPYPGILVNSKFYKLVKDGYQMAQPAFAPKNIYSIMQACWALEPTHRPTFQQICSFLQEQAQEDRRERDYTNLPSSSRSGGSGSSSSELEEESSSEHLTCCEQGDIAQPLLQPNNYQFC
Sequence of Platelet-derived growth factor receptor beta (P09619 whole entry): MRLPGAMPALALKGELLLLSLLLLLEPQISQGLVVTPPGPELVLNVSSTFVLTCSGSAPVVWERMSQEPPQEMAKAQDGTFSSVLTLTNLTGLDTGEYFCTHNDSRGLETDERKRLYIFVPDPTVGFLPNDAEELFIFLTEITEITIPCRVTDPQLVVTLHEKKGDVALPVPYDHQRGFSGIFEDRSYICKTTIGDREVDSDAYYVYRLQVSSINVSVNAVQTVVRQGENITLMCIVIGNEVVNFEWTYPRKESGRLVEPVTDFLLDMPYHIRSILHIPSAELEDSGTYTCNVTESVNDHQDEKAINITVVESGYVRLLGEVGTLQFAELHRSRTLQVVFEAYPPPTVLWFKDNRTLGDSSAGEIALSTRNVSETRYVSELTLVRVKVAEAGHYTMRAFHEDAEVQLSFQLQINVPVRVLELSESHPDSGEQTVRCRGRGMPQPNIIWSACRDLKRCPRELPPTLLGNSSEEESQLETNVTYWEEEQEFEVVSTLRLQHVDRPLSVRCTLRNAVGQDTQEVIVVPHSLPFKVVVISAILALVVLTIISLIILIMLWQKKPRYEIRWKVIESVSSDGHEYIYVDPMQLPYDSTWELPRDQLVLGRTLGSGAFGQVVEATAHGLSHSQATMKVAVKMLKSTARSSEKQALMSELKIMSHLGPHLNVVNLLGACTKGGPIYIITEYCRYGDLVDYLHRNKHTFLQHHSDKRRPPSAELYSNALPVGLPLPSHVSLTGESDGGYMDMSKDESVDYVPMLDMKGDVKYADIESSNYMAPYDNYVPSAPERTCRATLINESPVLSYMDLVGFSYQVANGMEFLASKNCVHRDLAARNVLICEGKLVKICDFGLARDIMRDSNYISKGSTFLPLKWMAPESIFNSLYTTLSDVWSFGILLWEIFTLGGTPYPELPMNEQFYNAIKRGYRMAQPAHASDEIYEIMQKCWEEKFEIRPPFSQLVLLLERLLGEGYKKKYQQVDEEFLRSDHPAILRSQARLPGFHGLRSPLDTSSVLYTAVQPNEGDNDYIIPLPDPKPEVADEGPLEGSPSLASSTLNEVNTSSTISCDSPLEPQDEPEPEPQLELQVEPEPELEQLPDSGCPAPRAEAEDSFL

For `CC(C)(C)c1cc(NC(=O)Nc2ccc(-c3cn(-c4ccc(OCCN5CCOCC5)cc4Cl)nn3)cc2)no1`, the Activity [1] was 6.53%, the viability at 0.004 µM [2] was 88.7% and the Kd [3] was 8.1 nM. The Activity [4] was 5.11%, the Activity [5] was 4.98% and the Tmax [6] was 4 h. For the same compound, the Tmax [7] was 0.25 h, the Activity [8] was “Active” and the Activity [9] was 2.64%. The Activity [10] was 1.09%, the Activity [11] was 12.1% and the Activity [12] was 5.68%. The Activity [13] was 1.15%, the Activity [14] was 7.51% and the Activity [15] was 13.06%. It also gave a Kd [16] of 21 nM, a viability at 0.02 µM [17] of 84% and a Kd [18] of 24 nM. The Activity [19] was “Active”, the Kd [20] was 2400 nM and the half-life [21] was 6.77 h. The Kd [22] was 10000 nM, the Activity [23] was 4.31% and the Activity [24] was 89.92%. The Kd [25] was 6.9 nM, the Activity [26] was “Active” and the bioavailability [27] was 35.8%. For the same compound, the Activity [28] was 10.62%, the inhibition [29] was “Active” and the GI50 [30] was greater than 3000 nM. For the same compound, the AUC [31] was 21200 ng·h/mL, the CL/F [32] was 10.6 mL/min/kg and the Activity [33] was “Active”. For the same compound, the GI50 at 72 h [34] was greater than 3000 nM, the Activity [35] was 3.25% and the Activity [36] was “Active”. It also gave an IC50 [37] of 32.8 nM, a Kd [38] of 100 nM and a GI50 [39] greater than 3000 nM.
